Data on two compounds can be found in publication PMC8518382, “Identification of a Bromodomain‐like Region in 15‐Lipoxygenase‐1 Explains Its Nuclear Localization” (Angewandte Chemie (International Ed. in English), 2021).

Common to all, as to type: biochemical
For assay [1], the target named is T1, 15-LOX-1 (Homo sapiens, UniProt P16050).
T1 sequence (P16050 1-662): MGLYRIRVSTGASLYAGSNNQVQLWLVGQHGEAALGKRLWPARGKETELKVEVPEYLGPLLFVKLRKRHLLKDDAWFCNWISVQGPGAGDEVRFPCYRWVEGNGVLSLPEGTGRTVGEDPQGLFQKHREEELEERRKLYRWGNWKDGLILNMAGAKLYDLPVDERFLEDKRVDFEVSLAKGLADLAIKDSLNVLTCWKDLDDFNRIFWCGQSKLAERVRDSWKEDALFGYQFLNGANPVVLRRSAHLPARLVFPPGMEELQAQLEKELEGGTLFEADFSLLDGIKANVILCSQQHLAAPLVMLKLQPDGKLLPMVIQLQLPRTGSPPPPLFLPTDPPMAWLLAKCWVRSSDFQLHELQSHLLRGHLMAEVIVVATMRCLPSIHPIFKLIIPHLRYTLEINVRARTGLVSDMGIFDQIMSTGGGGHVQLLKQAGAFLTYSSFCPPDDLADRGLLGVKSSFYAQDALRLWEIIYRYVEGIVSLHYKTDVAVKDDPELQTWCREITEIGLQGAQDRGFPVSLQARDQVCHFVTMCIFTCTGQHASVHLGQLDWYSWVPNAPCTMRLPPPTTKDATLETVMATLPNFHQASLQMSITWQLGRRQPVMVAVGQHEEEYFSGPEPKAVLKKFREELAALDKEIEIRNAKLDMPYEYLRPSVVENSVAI
Kind of assay: ABP-based ELISA assay with A549 cell lysate, 15-LOX-1. Also on record: the endogenous LOXs were captured on an anti‐LOX antibody precoated 96‐well plate; endogenous in cells; host or cells: A549 cell lysate. The protocol:
(§1) A549 cell lysate was treated with a serial dilution of the respective inhibitor. Subsequently, samples were labeled by treatment with 1 μM of Labelox B for 1 min. […] Data are mean±s.d., n≥3 independent experiments. […]
(§2) 1.6. Immunoblotting Analysis […]
(§3) 1.7. ABPP-based LOX inhibitor specificity validation
(§4) A549 cells were lysed by RIPA buffer supplemented with 1x PIC. After sonication and centrifugation, the supernatant was collected, and the protein concentration was determined by a Pierce BCA Protein Assay Kit (Thermo Fisher Scientific, USA). The lysates were then diluted with PBS to 300 ng/µl and stored in -20°C. To label endogenous LOXs with Labelox B under the competition condition, 180 µl diluted lysates were incubated with 200 µl different LOX inhibitor solution (in PBS) with desired concentrations for 18 min to inhibit LOXs activity. Later, 20 µl of a 20 µM Labelox B (in PBS) was added and incubated shortly for 2 min, followed by adding 50 µl of a 0.5 M EDTA to stop the labeling reaction. The reaction mixture was 450 µl in total. Inhibitors and Labelox B were absent in positive and […]
(§5) negative control, respectively. To detect the competition labeling of Labelox B among different LOXs, a high-binding 96-well plate (Greiner, #M4561) was coated with 5-LOX (#ab169755, Abcam), 12-LOX […]
(§6) (1:500 dilution in PBS) for overnight at 4°C. After washing triply with 0.05%PBST, the plate was blocked with 2% (w/v) BSA in PBST. Subsequently, 100 µl of each reaction mixture was added to the LOX-antibody-coated wells. There are four LOX antibodies used for coating. Therefore, in total, 400 µl mixture is needed for each reaction. After one hour of incubation, LOXs were pulled down by antibodies accordingly. Next, 100 µl of HRP-conjugated streptavidin (1:2000 dilution in PBS, Thermo Fisher Scientific, USA) was added to each well to detect the D04 labeled LOXs among precipitated LOXs. After washing with PBST, 100 µl of mixed HRP substrate reagent (R&D Systems, Minneapolis, USA) was added, and the colorizing reaction was stopped by adding 100 µl of 1M sulfuric acid. The absorbance at […]

In a further assay the target is T2, 12-LOX (Homo sapiens, UniProt P18054).
T2 construct: the endogenous LOXs were captured on an anti‐LOX antibody precoated 96‐well plate; endogenous in cells; host or cells: A549 cell lysate
T2 sequence (P18054 1-663): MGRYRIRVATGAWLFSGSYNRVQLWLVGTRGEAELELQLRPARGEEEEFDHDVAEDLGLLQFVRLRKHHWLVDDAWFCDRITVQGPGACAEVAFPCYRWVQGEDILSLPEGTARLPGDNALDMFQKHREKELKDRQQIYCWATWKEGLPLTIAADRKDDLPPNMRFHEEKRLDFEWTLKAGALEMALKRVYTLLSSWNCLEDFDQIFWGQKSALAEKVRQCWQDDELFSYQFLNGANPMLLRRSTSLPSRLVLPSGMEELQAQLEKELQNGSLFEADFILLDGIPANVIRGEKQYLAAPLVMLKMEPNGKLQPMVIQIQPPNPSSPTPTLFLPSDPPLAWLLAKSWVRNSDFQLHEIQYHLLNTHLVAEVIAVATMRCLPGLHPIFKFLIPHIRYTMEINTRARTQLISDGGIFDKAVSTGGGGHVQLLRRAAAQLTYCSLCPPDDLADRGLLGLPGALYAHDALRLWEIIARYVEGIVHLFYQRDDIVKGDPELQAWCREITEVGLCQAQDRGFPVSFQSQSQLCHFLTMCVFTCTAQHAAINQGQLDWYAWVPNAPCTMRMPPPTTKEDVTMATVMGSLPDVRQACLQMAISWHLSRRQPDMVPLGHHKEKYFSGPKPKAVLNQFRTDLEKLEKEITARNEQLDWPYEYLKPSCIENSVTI
Kind of assay: ABP-based ELISA assay with A549 cell lysate, 12-LOX. The protocol:
as §1, §2, §3, §4, §5, §6

Assay [2] has as its target T1, 15-LOX-1. Kind of assay: ABP-based ELISA assay with recombinant 15-LOX-1 (inhibition of Labelox B labeling). Further details: His-tag (N); made in house; host or cells: E. coli BL21(DE3). The protocol: as §1, §2, §3, §4, §5
(1:500 dilution in PBS) for overnight at 4°C. After washing triply with 0.05%PBST, the plate was blocked with 2% (w/v) BSA in PBST. Subsequently, 100 µl of each reaction mixture was added to the LOX-
In general terms: An ELISA detects its analyte on a solid surface through an enzyme-linked reagent.

The IC50 is the concentration at which inhibition is half-maximal.

“And” between values parts separate entries of the source, which are not always exact repeats. Equal values may be shown once.

With `c1ccc2c(c1)SCc1c-2[nH]c2ccccc12` [PD146176], the “HillSlope Value” on 15-LOX-1 [1] is -0.93; on 12-LOX, -0.98. Besides, the IC50 on 15-LOX-1 [1] (1 μM Labelox B) is 17.3 µM; on 12-LOX (1 μM Labelox B), ~17 µM and 19.1 µM; at 15-LOX-1 [2] (read-out: IC50 for attenuation of Labelox B mediated labeling), ~15 µM and 15 µM. Further, the Hill slope entry on 15-LOX-1 [2] is listed as “around 1”.
With `O=c1cc(-c2ccccc2)oc2cc(O)c(O)c(O)c12` [Baicalein], the “HillSlope Value” at 15-LOX-1 [1] is on record as -0.47; on 12-LOX it was -0.41. On 15-LOX-1 [2], the Hill slope result is “lower than 1”.
